Laboratory results: patent US20100173879A1, “USE OF A COMPOUND ANTAGONIST TO THE NK2 RECEPTORS OF NEUROKININ A FOR THE PREPARATION OF DRUGS USEFUL FOR PREVENTING AND TREATING OF SEXUAL DYSFUNCTION” (SANOFI-AVENTIS, priority 2007, published 2010)

Test system: male or female adult patients, exhibiting a major depressive disorder
Experiment: Eight-week multicentre double-blind clinical studies versus placebo, CSFQ questionnaire (changes in sexual functioning questionnaire)
Assay type: in vivo, human
Details: 100 mg per day orally for eight weeks
Protocol: The patients received, orally, a dose of 100 mg per day of saredutant for eight weeks, in the form of gel capsules (Example 2). he effects of saredutant compared with the placebo were evaluated using the CSFQ questionnaire (changes in sexual functioning questionnaire) comprising 14 items according to Clayton A H et al., Psychopharmacol. Bull., 1997, 33, 731-745. It is known that antidepressants have a deleterious effect on the sexual activity of patients (Montejo-Gonzales A L et al.: J. Sex Marital Ther., 1997, 23(3), 176-194). […] The table below indicates, for each group treated, the mean variation relative to the base value before treatment of the total CSFQ score and its variability between parentheses obtained over the analysis of all the studies. An increase in the total CSFQ score corresponds to an improvement in sexual function.

CC(=O)NC1(c2ccccc2)CCN(CC[C@H](CN(C)C(=O)c2ccccc2)c2ccc(Cl)c(Cl)c2)CC1 [Saredutant, (S)-(−)-N-[4-(4-acetamido-4-phenylpiperidin-1-yl)-2-(3,4-dichlorophenyl)butyl]-N-methylbenzamide]
effect on the dysfunctions reduced sexual desire and sexual arousal disorders (versus placebo): beneficial effect
improvement in the total CSFQ score between the last visit (56th day) and the first visit, in comparison with the placebo group (p<0.05): significant improvement
Total CSFQ score, mean variation relative to the base value before treatment (variability between parentheses) (all patients, n = 553, analysis of all the studies, increase = improvement in sexual function, *p < 0.05 versus placebo (ANCOVA)): 2.23 (0.64)*
